Results published in EP4635969A1, “NOVEL GLUCOCORTICOID, METHOD FOR PREPARING SAME, AND USE THEREOF” (Tianjin Pharmaceutical Biotechnology Co., Ltd., priority 2022, dated 2024).
Where two headings read alike, the source gives them in different places.

Columns and labels:
[1] = system: dry eye syndrome model New Zealand rabbits; assay: Dry eye syndrome experiment (benzalkonium chloride model): tear film break-up time; format: in vivo, male New Zealand White rabbits; conditions: for tear film break-up time: compared with the model group
Experimental: Positive control drug: Fluorometholone Eye Drops (specification: 5 mL/5 mg; Santen Pharmaceutical (CHINA) Co., Ltd.; Lot No.: 1FM6625) was used as the positive control drug and stored at room temperature protected from light until use.
Thirty male New Zealand White rabbits (conventional grade) were prepared. Six rabbits were randomly selected as the blank control group, and the remaining animals were administered 0.1% benzalkonium chloride to the left eye twice daily (morning and evening) , 10 µL/animal each time. On day 6 of modeling, tear secretion was measured using phenol red cotton threads to determine whether the model was successfully established. […] During the administration, all animals except the blank control group were administered 10 µL of 0.1% benzalkonium chloride to the left eye once daily to maintain dry eye symptoms..
• Test time: D3, D7, D15; • Test animals: All animals were tested before grouping; all enrolled surviving animals were tested after administration; • Test method: 1% Fluorescein sodium was dropped onto the inner side of the rabbit's lower eyelid, 10 µL/animal. The rabbit's eyes were closed and gently massaged to evenly distribute the fluorescein sodium on the eye surface. The rabbit's eyes were then sequentially placed under a slit lamp. The tear film break-up time was observed and recorded as the time from eye opening to the appearance of the first dark spot. If no dark spot appeared, the time was calculated as 60 seconds.
The normality and homogeneity of variance were tested by Levene's test. If there was no statistical significance (P > 0.05), one-way analysis of variance (ANOVA) was used for statistical analysis. If ANOVA was statistically significant (P ≤ 0.05), LSD test (parametric method) was used for comparative analysis. If the variance was heterogeneous (P ≤ 0.05), Kruskal-Wallis test was used. If the Kruskal-Wallis test was statistically significant (P ≤ 0.05), Dunnett's test (nonparametric method) was used for comparative analysis.

[2] = Determination of stability in plasma in vitro, human plasma (LC-MS/MS); format: in vitro ADME; conditions: same experimental conditions (human and mouse plasma)
Experimental: Pharmacological Example 3: Determination of Stability in Plasma in Vitro
The stock solution was diluted with acetonitrile to obtain a working solution at a concentration of 100 µ M. The solution should be freshly prepared prior to use and maintained at room temperature during application.
990 µ L of human and mouse plasma (N = 2) were separately pipetted and pre-incubated at 37 °C for 5 min. Then, 10 µ L of the test compound working solution was added and vortexed thoroughly (the final concentration of the test compound was 1 µ M). Immediately, 50 µ L of the plasma sample was added to 150 µ L of ice-cold precipitation agent containing the internal standard and vortexed thoroughly as the 0-time sample. The remaining plasma sample was continuously incubated at 37 °C, and 50 µ L of the plasma sample was aspirated and added to 150 µ L of ice-cold precipitation agent containing the internal standard at preset sampling time points, followed by thorough vortexing. The collected samples were stored in a freezer at -60 to -90 °C until analysis.
The concentration of the test compound was determined by LC-MS/MS, and its degradation was monitored. (semi-quantitative determination was conducted by comparing the peak area of the analyte to that of the internal standard).

[3] = system: asthma model mice; assay: Anti-asthma pharmacodynamic experiment: airway hyperresponsiveness (Penh) after methacholine challenge; format: in vivo, female BALB/c mice; conditions: for Effects on airway hyperresponsiveness (Penh values) in mice: compared with the model group
Experimental: Pharmacological Example 4: Pharmacodynamic Experiment on Anti-Asthma
The suspensions were stored at room temperature protected from light until use.
Positive control drug: Budesonide Suspension for Inhalation (specification: 2 mL: 1 mg; AstraZeneca Inc.; Lot No. : 327392) was diluted with injection-grade sodium chloride solution to 0.3 mg/ml as the positive control drug, and stored at room temperature protected from light until use.
Sixty female BALB/c mice underwent a one-week adaptive feeding period. Ten mice were randomly selected as the blank control group, while 50 mice were selected to establish asthma models.
From days 21 to 23 after sensitization, the mice in the model group and drug administration group were exposed to a 30-minute aerosol challenge with 5% OVA, while the mice in the blank control group were exposed to normal saline aerosol for the same duration.
Airway responsiveness was measured in all groups of mice after the last challenge. The mice were placed into a plethysmography chamber, and baseline Penh values were recorded. Subsequently, the mice were challenged with aerosolized methacholine at concentrations from low to high of 0, 6.25, and 12.5 mg/mL, with an aerosol volume of 100 µ L each time for 60 s. […] Penh values were then recorded for 3 min and averaged to compare the airway responsiveness of each group of mice.
Statistical analysis was performed using SPSS software. Measurement data were expressed as mean ± standard deviation. One-way ANOVA was used for intergroup comparisons. For data with homogeneous variance, LSD test was used; for data with heterogeneous variance, Dunnett-t test was used. A value of P < 0.05 was considered statistically significant.

[4] = molecular target: T1, progesterone receptor (PR) (Homo sapiens, UniProt P06401); assay: Assay for agonist activity on progesterone receptor (luciferase reporter, HEK293 cells transfected with pBIND-PR plasmid); format: cell-based; conditions: for Target selectivity PR/GR: ratio of EC50 values
T1 sequence (P06401 678-933): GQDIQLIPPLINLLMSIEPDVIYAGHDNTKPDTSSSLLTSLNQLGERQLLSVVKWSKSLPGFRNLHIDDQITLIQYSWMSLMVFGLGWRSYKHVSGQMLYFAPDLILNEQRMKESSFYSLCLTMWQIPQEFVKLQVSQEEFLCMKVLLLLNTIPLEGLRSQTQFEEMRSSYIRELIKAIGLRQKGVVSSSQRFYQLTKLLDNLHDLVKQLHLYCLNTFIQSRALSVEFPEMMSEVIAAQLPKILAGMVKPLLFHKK
In short: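 HEK293 cells transiently transfected with pBIND-MR or pBIND-PR, seeded in phenol red-free DMEM with 5% charcoal-stripped serum. Compounds tested as 12-point 4-fold dilutions from 50 µM in duplicate, 0.1% DMSO blank. Luciferase luminescence read, EC50 by nonlinear fit.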

[5] = molecular target: T2, glucocorticoid receptor (GR) (Homo sapiens, UniProt P04150); assay: Assay for agonist activity on glucocorticoid receptor (luciferase reporter, HEK293 cells transfected with pBIND-GR plasmid); format: cell-based
T2 sequence (P04150 521-777): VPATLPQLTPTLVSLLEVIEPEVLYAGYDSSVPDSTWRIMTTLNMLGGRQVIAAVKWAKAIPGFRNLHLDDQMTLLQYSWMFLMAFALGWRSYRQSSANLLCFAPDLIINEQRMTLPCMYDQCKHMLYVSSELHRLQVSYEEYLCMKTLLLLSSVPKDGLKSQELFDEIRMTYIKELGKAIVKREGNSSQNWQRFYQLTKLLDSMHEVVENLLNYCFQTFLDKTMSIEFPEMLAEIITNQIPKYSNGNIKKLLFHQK
In short: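 HEK293 cells transfected with pBIND-GR, seeded in phenol red-free DMEM with 5% charcoal-stripped serum, then exposed to compounds in a 10-point, 4-fold dilution series from 10 µM, in duplicate. Luciferase luminescence read after incubation; EC50 from nonlinear fit. Vehicle blank: 0.1% DMSO.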

[6] = GR agonist EC50 (nM), HEK293 cells transfected with pBIND-GR, luciferase signal
[7] = Nuclear receptor enzyme activity (nM) GR, EC50 of agonist activity, HEK293 reporter cells
[8] = EC50 of agonist activity, HEK293 reporter cells, top concentration 50 µM, read-out: Nuclear receptor enzyme activity (nM) PR
[9] = EC50 of agonist activity, HEK293 reporter cells, read-out: Nuclear receptor enzyme activity (nM) GR
[10] = HEK293 cells transfected with pBIND-GR, luciferase signal, read-out: GR agonist EC50

Compound | tear film break-up time [1] | plasma instability [2] | Effects on airway hyperresponsiveness (Penh values) in mice [3] | EC50 [4] [nM] | Target selectivity PR/GR [4] | EC50 [5, 6] [nM] | EC50 [5, 7] [nM] | Tear film break-up time (s) D3 ([1]; D3, 1 mg/mL, 50 µL/eye, 3 times a day for 14 days) [s] | Tear film break-up time (s) D7 ([1]; D7, 1 mg/mL, 50 µL/eye, 3 times a day for 14 days) | Tear film break-up time (s) D15 ([1]; D15, 1 mg/mL, 50 µL/eye, 3 times a day for 14 days) | Penh values in mice, Methacholine concentration (mg/ml) 0 ([3]; 0.3 mg/mL, 50 µL intratracheally once daily for 3 days, methacholine 0 mg/ml) | Penh values in mice, Methacholine concentration (mg/ml) 6.25 ([3]; 0.3 mg/mL, 50 µL intratracheally once daily for 3 days, methacholine 6.25 mg/ml) | Penh values in mice, Methacholine concentration (mg/ml) 12.5 ([3]; 0.3 mg/mL, 50 µL intratracheally once daily for 3 days, methacholine 12.5 mg/ml) | EC50 [4, 8] [nM] | EC50 [5, 9] [nM] | EC50 [5, 10] [nM]
C[C@]12C=CC(=O)C=C1CC[C@H]1[C@@H]3C[C@H]4OC(c5ccc(COC6CCOC6=O)cc5)O[C@@]4(C(=O)CO)[C@@]3(C)C[C@H](O)[C@@]12Cl (stereo partly drawn) [Compound 22, (6aS,6bR,7S,8aS,8bS,11aR,12aS,12bS)-6b-Chloro-7-hydroxy-8b-(2-hydroxyacetyl)-6a,8a-dimethyl-10-(4-(((2-oxotetrahydrofuran-3-yl)oxy)methyl)phenyl)-1,2,6a,6b,7,8,8a,8b,11a,12,12a,12b-do decahydro-4H-naphtho[2',1':4,5]indeno[1,2-d][1,3]dioxol-4-one] | significantly increased the tear film break-up time | exhibited the characteristic of plasma instability | significantly decreased the Penh values in mice | > 50000 | > 9.1×10^4 | 0.55 | 0.55 |  |  |  |  |  |  |  |  | 
C[C@]12C=CC(=O)C=C1CC[C@H]1[C@@H]3C[C@H]4OC(c5ccc(CSC6CCOC6=O)cc5)O[C@@]4(C(=O)CO)[C@@]3(C)C[C@H](O)[C@@]12Cl (stereo partly drawn) [Compound 23, (6aS,6bR,7S,8aS,8bS,11aR,12aS,12bS)-6b-Chloro-7-hydroxy-8b-(2-hydroxyacetyl)-6a,8a-dimethyl-10-(4-(((2-oxotetrahydrofuran-3-yl)thio)methyl)phenyl)-1,2,6a,6b,7,8,8a,8b,11a,12,12a,12b-do decahydro-4H-naphtho[2',1':4,5]indeno[1,2-d][1,3]dioxol-4-one] | significantly increased the tear film break-up time on day 15 | exhibited the characteristic of plasma instability | significantly decreased the Penh values in mice |  | > 2.4×10^5 |  |  | 45.67 ± 13.69 | 49.33 ± 8.91" s | 50.67 ± 10.41" s | 1.12 ± 0.30 | 1.55 ± 0.29 | 1.84 ± 0.38 | > 50000 | 0.21 | 0.21
C[C@]12C=CC(=O)C=C1CC[C@H]1[C@@H]3C[C@H]4OC(c5ccc(CSC6CCOC6=O)cc5)O[C@@]4(C(=O)CO)[C@@]3(C)C[C@H](O)[C@@]12F (stereo partly drawn) [Compound 17, (6aS,6bR,7S,8aS,8bS,11aR,12aS,12bS)-6b-Fluoro-7-hydroxy-8b-(2-hydroxyacetyl)-6a,8a-dimethyl-10-(4-(((2-oxotetrahydrofuran-3-yl)thio)methyl)phenyl)-1,2,6a,6b,7,8,8a,8b,11a,12,12a,12b-do decahydro-4H-naphtho[2',1':4,5]indeno[1,2-d][1,3]dioxol-4-one] | significantly increased the tear film break-up time | exhibited the characteristic of plasma instability | significantly decreased the Penh values in mice |  | > 1.7×10^5 |  |  |  |  |  |  |  |  | > 50000 | 0.3 | 0.3
C[C@]12C=CC(=O)C=C1[C@@H](F)C[C@H]1[C@@H]3C[C@H]4OC(c5ccc(CSC6CCOC6=O)cc5)O[C@@]4(C(=O)SCF)[C@@]3(C)C[C@H](O)[C@@]12F (stereo partly drawn) [Compound 34, S-(Fluoromethyl) (2S,6aS,6bR,7S,8aS,8bS,11aR,12aS,12bS)-2,6b-difluoro-7-hydroxy-6a,8a-dimethyl-4-oxo-10-(4-( ((2-oxotetrahydrofuran-3-yl)thio)methyl)phenyl)-1,2,4,6a,6b,7,8,8a,11a,12,12a,12b-dodecahydro-8bH-naphtho[2',1':4,5]indeno[1,2-d][1,3]dioxole-8b-carbothioate] | significantly increased the tear film break-up time | exhibited the characteristic of plasma instability | significantly decreased the Penh values in mice | > 50000 | > 5.0×10^5 | 0.1 | 0.1 |  |  |  |  |  |  |  |  | 
C[C@]12C=CC(=O)C=C1[C@@H](F)C[C@H]1[C@@H]3C[C@H]4OC(c5ccc(CSC6CCOC6=O)cc5)O[C@@]4(C(=O)OCF)[C@@]3(C)C[C@H](O)[C@@]12F (stereo partly drawn) [Compound 36, Fluoromethyl (2S,6aS,6bR,7S,8aS,8bS,11aR,12aS,12bS)-2,6b-difluoro-7-hydroxy-6a,8a-dimethyl-4-oxo-10-(4-( ((2-oxotetrahydrofuran-3-yl)thio)methyl)phenyl)-1,2,4,6a,6b,7,8,8a,11a,12,12a,12b-dodecahydro-8bH-naphtho[2',1':4,5]indeno[1,2-d][1,3]dioxole-8b-carboxylate] | significantly increased the tear film break-up time | exhibited the characteristic of plasma instability | significantly decreased the Penh values in mice | > 50000 | > 4.2×10^5 | 0.12 | 0.12 |  |  |  |  |  |  |  |  | 
C[C@]12C=CC(=O)C=C1CC[C@H]1[C@@H]3C[C@H]4OC(c5ccc(CSC6CCOC6=O)nc5)O[C@@]4(C(=O)CO)[C@@]3(C)C[C@H](O)[C@@]12F (stereo partly drawn) [Compound 47, (6aS,6bR,7S,8aS,8bS,11aR,12aS,12bS)-6b-Fluoro-7-hydroxy-8b-(2-hydroxyacetyl)-6a,8a-dimethyl-10-(6-(((2-oxotetrahydrofuran-3-yl)thio)methyl)pyridin-3-yl)-1,2,6a,6b,7,8,8a,8b,11a,12,12a,12 b-dodecahydro-4H-naphtho[2',1':4,5]indeno[1,2-d][1,3]dioxol-4-one] | significantly increased the tear film break-up time | exhibited the characteristic of plasma instability | significantly decreased the Penh values in mice | > 50000 | > 1.5×10^5 | 0.34 | 0.34 |  |  |  |  |  |  |  |  | 
C[C@]12C=CC(=O)C=C1CC[C@H]1[C@@H]3C[C@H]4OC(c5ccc(COC6CCOC6=O)cc5)O[C@@]4(C(=O)CO)[C@@]3(C)C[C@H](O)[C@@]12F (stereo partly drawn) [Compound 16, (6aS,6bR,7S,8aS,8bS,11aR,12aS,12bS)-6b-Fluoro-7-hydroxy-8b-(2-hydroxyacetyl)-6a,8a-dimethyl-10-(4-(((2-oxotetrahydrofuran-3-yl)oxy)methyl)phenyl)-1,2,6a,6b,7,8,8a,8b,11a,12,12a,12b-do decahydro-4H-naphtho[2',1':4,5]indeno[1,2-d][1,3]dioxol-4-one] | significantly increased the tear film break-up time | exhibited the characteristic of plasma instability | significantly decreased the Penh values in mice | > 50000 | > 1.2×10^5 | 0.43 | 0.43 |  |  |  |  |  |  |  |  | 
